Entries after “also recorded” stand apart in the source; their conditions may differ. Read-outs that look alike come from different tables or passages of the source.
Columns and labels:
[1] = target: T1, PTP1B (Homo sapiens, UniProt P18031); assay: In vitro PTP1B inhibition assay (p-NPP substrate); format: biochemical
T1 construct: purchased Enzo Life Sciences Inc
T1 sequence (P18031 1-435): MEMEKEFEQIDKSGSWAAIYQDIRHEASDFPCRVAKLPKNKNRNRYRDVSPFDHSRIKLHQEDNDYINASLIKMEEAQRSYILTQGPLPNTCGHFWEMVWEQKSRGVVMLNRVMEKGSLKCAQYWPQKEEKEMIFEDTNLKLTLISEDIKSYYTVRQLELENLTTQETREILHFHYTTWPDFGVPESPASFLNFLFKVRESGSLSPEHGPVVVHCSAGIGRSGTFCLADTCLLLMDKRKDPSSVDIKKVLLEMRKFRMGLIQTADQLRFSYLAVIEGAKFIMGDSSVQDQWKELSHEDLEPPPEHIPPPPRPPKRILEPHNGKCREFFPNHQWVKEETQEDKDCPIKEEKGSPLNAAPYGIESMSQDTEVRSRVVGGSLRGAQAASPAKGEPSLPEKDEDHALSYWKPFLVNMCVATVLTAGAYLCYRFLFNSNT
Procedure: PTP1B enzyme inhibition activity was assessed following a previously described protocol. […] It was followed by incubation at 37 °C for 30 min. After that, 10 μL of 10 M NaOH was added to quench the reaction. […] The non-enzymatic reaction of the substrate was considered and accounted for by comparing data to a control experiment without the PTP1B enzyme. IC50 values were calculated using non-linear regression in GraphPad Prism 10 (GraphPad Software, Inc., San Diego, CA, USA), based on triplicate experiments.

[2] = test system: 3T3-L1 adipocytes; assay: Glucose uptake using the 2-NBDG probe in differentiated 3T3-L1 adipocytes; format: cell-based; conditions: 1 h; for glucose uptake (2-NBDG) stimulatory effect: 20 μM; for concentration-response of glucose uptake stimulation: 5, 10, and 20 μM
Procedure: 3T3-L1 fibroblasts were cultured in DMEM (HyClone, Logan, UT, USA) supplemented with 10% calf serum, 100 U/mL penicillin, and 100 μg/mL streptomycin from Gibco (Grand Island, NY, USA). The cells were incubated at 37 °C with 5% CO2. Cells were differentiated after treatment with DMEM enriched with 10% fetal bovine serum (FBS) (HyClone, Logan, UT, USA), 1 μM dexamethasone (Sigma, St. Louis, MO, USA), 520 μM 3-isobutyl-1-methylxanthine (Sigma, St. Louis, MO, USA), and 1 μg/mL insulin (Roche, Mannheim, Germany). After 48 h, the media were changed with fresh DMEM containing 10% FBS, 1 μg/mL insulin, 100 U/mL penicillin, and 100 μg/mL streptomycin. Every 48 ours, the media were replaced until the induction of adipogenesis. Intracellular lipid droplets appeared after 4 to 6 days of incubation.
In vitro experiments measured glucose uptake in 3T3-L1 adipocytes using 2-NBDG, a fluorescent glucose derivative (Invitrogen, Eugene, OR, USA). Cells were cultured on 96-well plates in a glucose-free medium supplemented with 10% FBS. After incubation, cells were treated with either insulin (as a positive control) or the test compounds in the presence or absence of 2-NBDG and were further incubated for an additional hour. Cells were washed with cold phosphate-buffered saline (PBS). The 2-NBDG fluorescence was quantified by measuring the signal intensity at excitation/emission wavelengths of 450/535 nm using a SpectraMax Gemini XPS fluorescence microplate reader (Molecular Devices, San Jose, CA, USA). For cellular transport studies involving 2-NBDG, 3T3-L1 adipocytes were grown on sterilized glass coverslips in a glucose-free medium containing 10% FBS for 24 h. After treatment with 2-NBDG, cells were washed with cold PBS. Fluorescent images were obtained with an Olympus IX 70 fluorescence microscope (Olympus Corporation, Tokyo, Japan) to quantify the cellular transport of 2-NBDG.

[3] = target: T1, PTP1B; assay: Kinetic analysis with PTP1B (Lineweaver–Burk and Dixon plots); format: biochemical; conditions: for Ki: determined by Dixon plot interpretation; for Inhibition Type: determined by Lineweaver–Burk plots
Procedure: Reaction velocity was measured at different concentrations of tested compounds for kinetic analysis. The tested compounds or DMSO were preincubated with the enzyme and buffer solution at 37 °C for 2 min, followed by adding 50 μL of substrate (p-NPP) at different concentrations. The initial reaction velocities were monitored at 37 °C at 405 nm for 15 min. The kinetic reaction slopes were calculated based on the absorbance increments observed between 2 and 10 min (within the linear range). GraphPad Prism 10 (GraphPad Software, Inc., San Diego, CA, USA) was used to graph the double reciprocal Lineweaver–Burk and Dixon plots.

[4] = test system: pre-diabetic male Sprague Dawley rats; design: method as in PMID 29596390; conditions: pre-diabetic male Sprague Dawley rats ref 44; cited from earlier work
[5] = test system: 3T3-L1 adipocytes; design: method as in PMID 27765349; conditions: cited from earlier work
[6] = 50% PTP1B inhibitory effect, mean ± S.E.M. of triplicate experiments, six concentrations, read-out: IC50

| Compound | IC50 [1, 6] [µM] | PTP1B inhibitory activity (in words) [1] | glucose uptake (2-NBDG) stimulatory effect [2] | also measured |
| --- | --- | --- | --- | --- |
| C=C(CO)C1CCC2(C(=O)OC)CCC3(C(=O)O)C(CCC4C5(C)CCC(O)C(C)(C)C5CCC43C)C12 (centres unmarked) [Compound 1, Cleistocalyxic acid L] | > 20 |  |  |  |
| C=C1CCC23CCC4(C)C5(C)CCC6C(=C)C(O)C(O)CC6(C)C5C5OC5C4(OC2=O)C3C1C (centres unmarked) [Compound 3, Cleistocalyxolide C] | > 20 | reduced inhibitory effects | low glucose uptake stimulation |  |
| C=C(C)[C@@H]1CC[C@]2(C(=O)O)CC[C@]3(C)[C@H](CC[C@@H]4[C@@]5(C)C[C@@H](O)[C@H](O)C(C)(C)[C@@H]5CC[C@]43C)[C@@H]12 [Compound 6, alphitolic acid] | 4.1 ± 0.2 | strong PTP1B inhibitory activities | showed glucose uptake stimulatory effects; also recorded: particularly potent glucose uptake stimulatory effects | concentration-response of glucose uptake stimulation [2]: dose dependent; Ki [3]: 2.8 ± 0.4 µM; Inhibition Type [3]: non-competitive inhibitor of PTP1B |
| C=C1[C@@H](O)[C@H](O)C[C@]2(C)[C@H]3[C@@H]4O[C@@H]4[C@]45OC(=O)[C@@]6(CC[C@@H](C)[C@H](C)[C@H]64)CC[C@@]5(C)[C@]3(C)CC[C@@H]12 [Compound 7, ulmoidol] | > 20 | reduced inhibitory effects | low glucose uptake stimulation |  |
| CC1(C)CCC23CCC4(C)C5(C)CCC6C(C)(C)C(O)C(O)CC6(C)C5CC(O)C4(OC2=O)C3C1 (centres unmarked) [Compound 8, (2a, 3b, 12a)-trihydorxy-olean-28-oic acid 28,13-lactone] | > 20 | reduced inhibitory effects | low glucose uptake stimulation |  |
| CC1(C)CC[C@]2(C(=O)O)CC[C@]3(C)C(=CC[C@@H]4[C@@]5(C)CC[C@H](O)C(C)(C)[C@@H]5CC[C@]43C)[C@@H]2C1 [Compound 12, oleanolic acid] |  |  | showed glucose uptake stimulatory effects | glucose homeostasis and progression of type 2 diabetes [4]: improve glucose homeostasis and prevent the progression of type 2 diabetes |
| CC1(C)CC[C@]2(C(=O)O)CC[C@]3(C)C(=CC[C@@H]4[C@@]5(C)C[C@@H](O)[C@H](O)C(C)(C)[C@@H]5CC[C@]43C)[C@@H]2C1 [Compound 13, maslinic acid] |  | significant inhibitory activity | showed glucose uptake stimulatory effects; also recorded: particularly potent glucose uptake stimulatory effects | IC50 [1]: 1.28 ± 0.1 µM; concentration-response of glucose uptake stimulation [2]: dose dependent; Ki [3]: 3.2 ± 0.6 µM; Inhibition Type [3]: non-competitive inhibitor of PTP1B; glucose uptake [5]: increased glucose uptake; intracellular Ca2+ concentration [5]: raised intracellular Ca^2+ concentration; lipid droplet and triglyceride levels [5]: reduced lipid droplet and triglyceride levels |
| CC1(C)CC[C@]2(C(=O)O)CC[C@]3(C)C(=CCC4[C@@]5(C)C[C@@H](O)[C@H](OC(=O)/C=C\c6ccc(O)cc6)C(C)(C)C5CC[C@]43C)C2C1 (some centres unmarked) [Compound 17, 3-O-(Z)-p-coumaroyl maslinic acid] | 2.6 ± 0.3 | strong PTP1B inhibitory activities; also recorded: significant inhibitory activity | showed glucose uptake stimulatory effects; also recorded: particularly potent glucose uptake stimulatory effects | concentration-response of glucose uptake stimulation [2]: dose dependent; Ki [3]: 2.7 ± 0.4 µM; Inhibition Type [3]: non-competitive inhibitor of PTP1B |

Second part, led by results:

| IC50 [1, 6] [µM] | PTP1B inhibitory activity (in words) [1] | Compound | glucose uptake (2-NBDG) stimulatory effect [2] | also measured |
| --- | --- | --- | --- | --- |
| > 20 |  | C=C(C)C1CCC2(C(=O)OC)CCC3(C(=O)O)C(CCC4C5(C)CCC(O)C(C)(CO)C5CCC43C)C12 (centres unmarked) [Compound 2, Cleistocalyxic acid M] |  |  |
| 8.7 ± 0.6 |  | C=C(C)[C@@H]1CC[C@]2(C(=O)OC)CC[C@]3(C(=O)O)C(CCC4[C@@]5(C)CC[C@H](O)C(C)(C)C5CC[C@]43C)C12 (some centres unmarked) [Compound 4, melaleucic acid 28-O-methyl ester] |  |  |
| 2.2 ± 0.1 | significant inhibitory activity | C=C(C)[C@@H]1CC[C@]2(C(=O)O)CC[C@]3(C)[C@H](CC[C@@H]4[C@@]5(C)CC[C@H](O)C(C)(C)[C@@H]5CC[C@]43C)[C@@H]12 [Compound 5, betulinic acid] |  |  |
| 4.4 ± 0.5 | strong PTP1B inhibitory activities | C[C@@H]1CC[C@]2(C(=O)O)CC[C@]3(C)C(=CCC4[C@@]5(C)C[C@@H](O)[C@H](O)[C@@](C)(CO)C5CC[C@]43C)C2[C@]1(C)O (some centres unmarked) [Compound 9] |  | Ki [3]: 7.6 ± 1.2 µM; Inhibition Type [3]: non-competitive inhibitor of PTP1B |
| 12.2 ± 0.3 |  | C=C1C2CC[C@]3(C)C(CC=C4C5[C@](C(=O)O)(CC[C@@H](C)[C@@]5(C)O)CC[C@]43C)[C@@]2(C)C[C@@H](O)[C@@H]1O (stereo partly drawn) [Compound 10, 2α,3β,19α-trihydroxy-24-norurs-4(23),12-dien-28-oic acid] |  |  |
| 14.1 ± 0.3 |  | C=C1[C@@H](O)[C@H](O)C[C@]2(C)[C@H]3CC=C4[C@@H]5[C@@H](C)[C@H](C)CC[C@]5(C(=O)O)CC[C@@]4(C)[C@]3(C)CC[C@@H]12 [Compound 11, ilekudinol B] |  |  |
| 3.6 ± 0.2 |  | CC1(C)CC[C@]2(CO)CC[C@]3(C)C(=CC[C@@H]4[C@@]5(C)CC[C@H](O)C(C)(C)[C@@H]5CC[C@]43C)[C@@H]2C1 [Compound 14, erythrodiol] |  |  |
| 6.6 ± 0.6 |  | CC1(C)CC[C@]2(C(=O)O)CC[C@]3(C)C(=CC[C@@H]4[C@@]5(C)C[C@@H](O)[C@H](O)[C@@](C)(CO)[C@@H]5CC[C@]43C)[C@@H]2C1 [Compound 15, arjunolic acid] |  |  |
| 3.6 ± 0.4 |  | CC1(C)CC[C@]2(C(=O)O)CC[C@]3(C)C(=CCC4[C@@]5(C)C[C@@H](O)[C@H](OC(=O)/C=C/c6ccc(O)cc6)C(C)(C)C5CC[C@]43C)C2C1 (some centres unmarked) [Compound 16, 3-O-(E)-p-coumaroyl maslinic acid] | showed glucose uptake stimulatory effects |  |

From publication PMC11397035, “In Vitro and In Silico Analysis of PTP1B Inhibitors from Cleistocalyx operculatus Leaves and Their Effect on Glucose Uptake” (Nutrients, 2024)
